# Where two headings read alike, the source gives them in different places.
# Legend:
# AbPYKS [1] = target: T1, AbPYKS (Atropa belladonna, UniProt A0A3G4RHW3); conditions: substrate inhibition constant, 25 mM potassium phosphate pH 8.0, 30 °C
# T1 construct: gene OGAS
# AbPYKS [2] = target: T1, AbPYKS; conditions: apparent; 0.1 mM malonyl-CoA, 25 mM potassium phosphate pH 8.0, 30 °C
# [3] = system: CC(C)(COP(=O)(O)OP(=O)(O)OC[C@H]1O[C@@H](n2cnc3c(N)ncnc32)[C@H](O)[C@@H]1OP(=O)(O)O)[C@@H](O)C(=O)NCCC(=O)NCCSC(=O)CC(=O)O; experiment: purified protein; conditions: apparent, 0.05 mM N-methyl-Δ^1-pyrrolinium, 25 mM potassium phosphate pH 8.0, 30 °C
# AbCYP82M3 = target: T2, AbCYP82M3 (Atropa belladonna, UniProt A0A3G4RHY7); conditions: 1 mM NADPH, pH 7.0, ionic strength 0.05, 20% glycerol, 30 °C
# T2 construct: gene CYP82M3
# T2 sequence (A0A3G4RHY7 1-519): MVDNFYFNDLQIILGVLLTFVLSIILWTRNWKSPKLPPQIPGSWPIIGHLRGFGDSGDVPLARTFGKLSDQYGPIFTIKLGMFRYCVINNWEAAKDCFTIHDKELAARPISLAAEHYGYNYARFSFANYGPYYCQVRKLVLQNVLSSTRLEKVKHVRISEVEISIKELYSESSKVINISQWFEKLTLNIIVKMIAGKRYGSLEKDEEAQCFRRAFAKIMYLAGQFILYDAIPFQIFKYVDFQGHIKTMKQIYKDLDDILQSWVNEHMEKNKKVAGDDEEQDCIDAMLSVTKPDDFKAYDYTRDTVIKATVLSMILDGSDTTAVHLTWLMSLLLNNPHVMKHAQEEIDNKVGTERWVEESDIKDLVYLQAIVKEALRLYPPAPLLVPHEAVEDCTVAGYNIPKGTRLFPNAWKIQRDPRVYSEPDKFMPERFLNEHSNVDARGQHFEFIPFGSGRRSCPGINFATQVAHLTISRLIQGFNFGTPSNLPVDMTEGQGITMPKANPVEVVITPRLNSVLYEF
# T1 sequence (A0A3G4RHW3 1-392 limits assumed): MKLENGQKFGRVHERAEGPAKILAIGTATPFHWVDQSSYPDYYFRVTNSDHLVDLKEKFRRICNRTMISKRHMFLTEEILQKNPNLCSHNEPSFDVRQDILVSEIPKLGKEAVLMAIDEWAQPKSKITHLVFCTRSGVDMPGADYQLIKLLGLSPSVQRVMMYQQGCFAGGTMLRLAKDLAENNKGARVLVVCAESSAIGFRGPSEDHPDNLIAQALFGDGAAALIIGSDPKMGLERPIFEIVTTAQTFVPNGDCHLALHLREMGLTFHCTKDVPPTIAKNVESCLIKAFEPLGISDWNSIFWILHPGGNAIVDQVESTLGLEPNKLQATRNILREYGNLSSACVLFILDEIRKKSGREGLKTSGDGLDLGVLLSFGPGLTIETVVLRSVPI
compound,measurement,setting,value
CC(C)(COP(=O)(O)OP(=O)(O)OC[C@H]1O[C@@H](n2cnc3c(N)ncnc32)[C@H](O)[C@@H]1OP(=O)(O)O)[C@@H](O)C(=O)NCCC(=O)NCCSC(=O)CC(=O)O [Malonyl-CoA],K i /,AbPYKS [1]; 0.05 mM N-methyl-Δ^1-pyrrolinium,280 ± 0.9 µM
"C[N+]1=CCCC1 [compound 4, N-methyl-Δ^1-pyrrolinium]",K i /,AbPYKS [1]; 0.1 mM malonyl-CoA,103 ± 16 µM
same,Km,AbPYKS [2],10 ± 0.6 µM
AbPYKS (Atropa belladonna),Km,[3],12 ± 1 µM
same,Vmax,[3],13.8 µmol/min/mg
same,kcat,[3],10 ± 0.1 s⁻¹
same,kcat/Km,[3],848000 ± 90000 M⁻¹ s⁻¹
"CN1CCCC1CC(=O)CC(=O)O (racemic) [compound 5, 4-(1-methyl-2-pyrrolidinyl)-3-oxobutanoic acid]",Km,AbCYP82M3,631 ± 26 µM
